“And” between values parts separate entries of the source, which are not always exact repeats. Identical values can stand only once.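 Compound exposure: 48 hours, 5 concentrations, 96-well plates. Here, GI50 denotes the concentration required for 50% inhibition of growth. Definition used: TGI = concentration required for complete inhibition of growth.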
What was measured:
Experiment in all cases: inhibition of tumour cell growth, NCI panel, 48 h
[1] = system: A498 renal
[2] = system: HCC-2998 colon
[3] = system: HCT-116 colon
[4] = system: LOX IMVI melanoma
[5] = system: M14 melanoma
[6] = system: MDA-MB-435
[7] = system: MOLT-4 leukemia
[8] = system: RXF 393 renal
[9] = system: SN12C renal
[10] = system: SW-620 colon

Compound | TGI [1] | TGI [2] | TGI [3] | TGI [4] | TGI [5] | TGI [6] | TGI [7] | TGI [8] | TGI [9] | TGI [10] | GI50 [1] | GI50 [2] | GI50 [3] | GI50 [5] | GI50 [6] | GI50 [8] | GI50 [9] | GI50 [10] | GI50 [4] | GI50 [7]
O=C1CC2OCC=C3CN4CCC5(C(=O)O)C(N1)C2C3CC45 (configuration not stated) | > 100 µM | > 100 µM | > 100 µM | > 100 µM | > 100 µM | > 100 µM | > 100 µM | > 100 µM | > 100 µM | > 100 µM | – | – | – | – | – | – | – | – | – | –
C=Cc1cc(OC)c2c(c1)c(=O)oc1c2cc(OC)c2c(O)ccc(C3OC(C(C)O)C(O)C3O)c21 (configuration not stated) | 0.00468 µM | 0.0422 µM | 0.205 µM | – | 0.0302 µM | 0.0337 µM | – | 0.00384 µM | 0.172 µM | 0.084 µM | 0.00126 µM | 0.013 µM | 0.00298 µM | 0.011 µM | 0.0145 µM | 0.00181 µM | 0.0229 µM | 0.0117 µM | – | –
COc1ccc(/C=C/C(=O)c2ccc(Nc3nc(Nc4ccc(F)cc4)nc(Nc4ccc(F)cc4)n3)cc2)cc1 | 28.2 µM | 53.8 µM | 18.3 µM | 67.7 µM | 36.7 µM | 31.6 µM | 21.9 µM | 14.2 µM | > 100 µM | 82.1 µM | 11.8 µM | 14.1 µM | 4.82 µM | 12.3 µM | 5.8 µM | 3.09 µM | 55.1 µM | 19 µM | 21.7 µM | 3.11 µM
CC(C)OP(=O)(OC(C)C)/C(C#N)=C/c1c[nH]c2ccccc12 | > 100 µM | > 100 µM | > 100 µM | > 100 µM | > 100 µM | > 100 µM | > 100 µM | > 100 µM | > 100 µM | > 100 µM | – | – | – | – | – | – | – | – | – | –
NC1=C(O)C(=O)C(c2c[nH]c3ccc(OCc4ccccc4)cc23)O1 (configuration not stated) | > 100 µM | > 76.3 µM | > 100 µM | > 100 µM | > 100 µM | > 100 µM | > 100 µM | > 100 µM | > 100 µM | > 100 µM | – | – | – | – | – | – | – | – | – | –
CCCC(=O)OC(OC(=O)CCC)c1ccc([N+](=O)[O-])o1 | > 100 µM | 32.1 µM | 32.8 µM | 58.5 µM | 47.8 µM | 47.4 µM | 98.4 µM | 54 µM | 31.3 µM | 41.2 µM | – | – | – | – | – | – | – | – | – | –
O=C1C=CC(=O)c2c(O)c(N(CCCl)CCCl)c(Cl)c(O)c21 | > 9.53 µM | > 10 µM | 5.68 µM | 6.25 µM | 6.06 µM | 5.83 µM | > 10 µM | > 6.69 µM | > 7.71 µM | 6.56 µM | – | – | – | – | – | – | – | – | – | –
CNC(=O)c1cc(-c2ccc(F)cc2)cc(-c2ccc(S(=O)(=O)N3CCCC3)cc2)c1N | > 25 µM | > 25 µM | > 25 µM | > 25 µM | > 25 µM | > 25 µM | > 25 µM | > 25 µM | > 25 µM | > 25 µM | 5.25 µM | > 25 µM | 11.6 µM | > 25 µM | > 25 µM | 14.7 µM | > 23.8 µM | 18.6 µM | > 25 µM | 15.5 µM
COc1ccc2c(c1)C=CC1C2CC[C@]2(C)C(NC(=O)/C=C/c3ccc(O)c(O)c3)CCC12 (some centres not stated) | 53.6 µM | 34.6 µM | 17.4 µM | 20.2 µM | 30.8 µM | 36.6 µM | 22.7 µM | 45.8 µM | 32.2 µM | 55.2 µM | 19.9 µM | 14.4 µM | 4.49 µM | 13.7 µM | 14.7 µM | 17.6 µM | 13.6 µM | 9.93 µM | 6.45 µM | 5.56 µM
C[C@@H]1Cc2c(ccc3[nH]ncc23)[C@@H](c2ccc(NC3CN(CCCF)C3)cn2)N1CC(F)(F)F | 36.6 µM | 33.5 µM | 28.2 µM | 31.4 µM | 32.2 µM | 34.8 µM | > 100 µM | 22.9 µM | 79 µM | 34.3 µM | 15.6 µM | 17.2 µM | 14.5 µM | 16.5 µM | 17.2 µM | 6.8 µM | 24 µM | 17.5 µM | 16.1 µM | 19.6 µM
COC(=O)Nc1nc2ccc(C(=O)c3cccs3)cc2[nH]1 | 1.58 µM | 11.5 µM and > 100 µM | 16.5 µM and 14.2 µM | > 100 µM | 2.79 µM and 0.432 µM | 0.158 µM and 0.102 µM | 13 µM and > 100 µM | 1.36 µM | 32.9 µM and > 100 µM | > 100 µM | 0.203 µM | 0.0574 µM and 0.197 µM | 0.0732 µM | 0.0797 µM | 0.029 µM | – | 0.729 µM | 0.0672 µM | 0.536 µM | 0.269 µM
O=C(/C=C/c1ccc(Cl)cc1Cl)c1ccc(Cl)cc1Cl | 48.5 µM | > 70.5 µM | 17.1 µM | 30.1 µM | 46.3 µM | 35.3 µM | 14.9 µM | 36.3 µM | 24.8 µM | 47.3 µM | 20.7 µM | 23.7 µM | 5.82 µM | 18.7 µM | 16.7 µM | 16.7 µM | – | 9.22 µM | 15.8 µM | 6.11 µM
c1ccc(-c2cc3n4c(-c5ccccc5)nn(-c5ccccc5)c4cnc-3n2)cc1 | > 50 µM | – | > 50 µM | > 50 µM | > 50 µM | > 50 µM | > 50 µM | 33.8 µM | > 50 µM | > 50 µM | 12.1 µM | – | 3.61 µM | > 50 µM | > 50 µM | 4.16 µM | > 50 µM | > 50 µM | > 50 µM | > 50 µM
N=C1C=C(N)C(=O)c2ccccc21 | 2.95 µM | 2.76 µM | 0.451 µM | 0.421 µM | 0.422 µM | 0.31 µM | 0.558 µM | 0.337 µM | 0.376 µM | 0.509 µM | 1.57 µM | 1.39 µM | 0.183 µM | 0.209 µM | 0.163 µM | 0.182 µM | 0.188 µM | 0.22 µM | 0.17 µM | 0.215 µM
CN(C)Cc1cc(C(C)(C)C)cc(CN(C)C)c1O | > 100 µM | 52.2 µM | > 100 µM | > 100 µM | > 100 µM | > 100 µM | > 100 µM | > 100 µM | > 100 µM | > 100 µM | – | – | – | – | – | – | – | – | – | –

Source: PubChem BioAssay (NCI)
